Key:
[1] = tested on: A549: a human lung cancer cell line; assay: MTT analytical method, A549 cells; assay type: cell-based; details: 72 h
From the text: (§1) MTT analytical method was used to test the prodrugs for various tumor cells.
(§2) • 1) Cell lines: NCI-H460, A549, LOVO, HT-29, MDA-MB-231, SGC7901, HepG2 or BEL-7402 cell lines. Culture: adherent culturing in D-MEM (Hyclone, Inc.) containing 10% fetal calf serum. The initial cell concentration was about 3×10^5 /mL. The cell was passaged by 1:3 dilution in every 2-3 days. On the day before the test, the cell was passaged by 1:2 dilution, the cell concentration for the test was 5-10×10^5 /mL. • 2) Dissolution and dilution of compounds: according to the weight and molecular weight of the drugs provided, 100-200 μL of DMSO was added. Then normal saline was added to make the final diluted concentration of the drugs be 5 mM (Note that the final concentration of DMSO should not be more than 10%). • 3) D-MEM or RPMI 1640 cell culture medium, Gibco, Inc. • 4) Fetal calf serum Hyclone, Inc. • 5) Cell dissociation buffer, 0.25% Trypsin+0.02% EDTA. • 6) MTT solution, MTT Powder (Sigma) were dissolved in PBS buffer solution to make a solution of 5 mg/mL. The solution was filtered by a 0.22 μm micropore membrane and stored at −20° C. • 7) PBS buffer solution. • 8) 10% acidified SDS, 0.01N HCl. • 9) Centrifuge tubes, haustorial tubes etc. (BD, Inc.); 96-well plates (Costatr, Inc.) Procedures: • 1) Cell inoculation: Cells grown for 24 hours after passage, which cells were in good growth state, were used. The cells were harvested by the routine method. The cell concentration was adjust with a fresh culture solution to 2×10^5/mL (for adherent cells)-3×10^5/mL (for suspension cells). The adherent cells were inoculated at 100 μL/well and then cultivated in an incubator with 5% CO2 at 37° C. for 24 h. Thereafter the used culture solution was removed and 95 μL/well of fresh culture solution was added. The suspension cells were inoculated at 95 μL/well directly. • 2) Drugs treatment: 9 concentration grades were designed for every drug, and every concentration had 3 wells. The control group had 5 wells. The control group was tested simultaneously in each test. The final concentrations of a drug added were […], and 5 μL normal saline was added to the control group. • 3) Cell culture and detection: the cells were cultured in an incubator with 5% CO2 at 37° C. for 72 h after the drug was added, then 10 μL MTT was added to each well and the culture was continued for 4 h. 100 μL of 10% SDS (containing 0.01N HCl) was added to each well. After 24 h, the absorbance (A) of each well was determined by Bio-rad 680 ELISA with the detection wavelength of 570 nm and the reference wavelength of 630 nm. Calculation:
(§3) First, the absorbance (A) of each well was averaged (removing any data with big difference). […] A0 was the mean absorbance of the control wells. The effect curve of the drug concentration was drawn using EXCEL software and the drug concentration for 50% cell survival was calculated according to an appropriate computing methods.

[2] = tested on: SGC7901: a human gastric cancer line; assay: MTT analytical method, SGC7901 cells; assay type: cell-based; details: SGC-7901, 72 h
From the text: as §1, §2, §3

[3] = tested on: HT29: a human colon cancer cell line; assay: MTT analytical method, HT29 cells; assay type: cell-based; details: HT-29, 72 h
From the text: as §1, §2, §3

[4] = tested on: Bel7402: a human liver cancer cell line; assay: MTT analytical method, Bel7402 cells; assay type: cell-based; details: Bel-7402, 72 h
From the text: as §1, §2, §3

[5] = tested on: LOVO: a human colon cancer cell line; assay: MTT analytical method, LOVO cells; assay type: cell-based; details: 72 h
From the text: as §1, §2, §3

[6] = tested on: NCI-H460: a human lung cancer cell line; assay: MTT analytical method, NCI-H460 cells; assay type: cell-based; details: 72 h
From the text: as §1, §2, §3

[7] = tested on: MDA-MB-231: a human breast cancer line; assay: MTT analytical method, MDA-MB-231 cells; assay type: cell-based; details: MDA-MB-231, MTT, 72 h
From the text: as §1, §2, §3

[8] = tested on: HepG2: a human liver cancer cell line; assay: MTT analytical method, HepG2 cells; assay type: cell-based; details: 72 h
From the text: as §1, §2, §3

[9] = tested on: Hepatocellular Carcinoma; details: patients, liver cancer treatment; cited from earlier work

Structure (SMILES) | IC50 [1] [µM] | IC50 [2] [µM] | IC50 [3] [µM] | IC50 [4] [µM] | IC50 [5] [µM] | IC50 [6] [µM] | IC50 [7] [µM] | IC50 [8] [µM] | fatal rate of complication [9] [%]
CCCCCCCCCCCOC(=O)c1ncccc1C(=O)Nc1ccn([C@@H]2O[C@H](CO)[C@@H](O)C2(F)F)c(=O)n1 [Compound 15, Undecyl-3-((1-((2R,4R,5R)-3,3-difluoro-4-hydroxy-5-(hydroxymethyl)-tetrahydrofuran-2-yl)-2-oxo-1,2-dihydropyrimidin-4-yl)carbamoyl)picolinate] | 3 | > 16 | < 2 | 4 | 16 | < 1 | 11 | 4 | –
CCCCCCCCCCCCOC(=O)c1ccc(C(=O)Nc2ccn([C@@H]3O[C@H](CO)[C@@H](O)C3(F)F)c(=O)n2)nc1 [Compound 8, Dodecyl-6-((1-((2R,4R,5R)-3,3-difluoro-4-hydroxy-5-(hydroxymethyl)-tetrahydrofuran-2-yl)-2-oxo-1,2-dihydropyrimidin-4-yl)carbamoyl)nicotinate] | 4 | > 16 | 6 | 23 | 14 | < 2 | > 16 | 7 | –
CCCCCCCCCCCCOC(=O)c1ccnc(C(=O)Nc2ccn([C@@H]3O[C@H](CO)[C@@H](O)C3(F)F)c(=O)n2)c1 [Compound 26, Dodecyl-2-((1-((2R,4R,5R)-3,3-difluoro-4-hydroxy-5-(hydroxymethyl)-tetrahydrofuran-2-yl)-2-oxo-1,2-dihydropyrimidin-4-yl)carbamoyl)isonicotinate] | 3 | > 16 | 2 | 8 | 16 | < 1 | 6 | 2 | –
CCCCCCCCCCCCOC(=O)c1ccc(C(=O)Nc2ccn([C@@H]3O[C@H](CO)[C@@H](O)C3(F)F)c(=O)n2)cn1 [Compound 9, Dodecyl-5-((1-((2R,4R,5R)-3,3-difluoro-4-hydroxy-5-(hydroxymethyl)-tetrahydrofuran-2-yl)-2-oxo-1,2-dihydropyrimidin-4-yl)carbamoyl)picolinate] | 4 | > 16 | 3 | 13 | 5 | < 2 | > 16 | 6 | –
COc1cccc2c1C(=O)c1c(O)c3c(c(O)c1C2=O)C[C@@](O)(C(=O)CO)C[C@@H]3O[C@H]1C[C@H](N)[C@H](O)[C@H](C)O1 [Doxorubicin] | – | – | – | – | – | – | – | – | ~25
CCCCCCCCCCCOC(=O)c1nccnc1C(=O)Nc1ccn([C@@H]2O[C@H](CO)[C@@H](O)C2(F)F)c(=O)n1 [Compound 5, Undecyl-3-((1-((2R,4R,5R)-3,3-difluoro-4-hydroxy-5-(hydroxymethyl)-tetrahydrofuran-2-yl)-2-oxo-1,2-dihydropyrimidin-4-yl)carbamoyl)pyrazine-2-carboxylate] | – | > 16 | 30 | 16 | 1 | < 2 | > 16 | 4 | –
CCCCCCCCCCCOC(=O)c1ccncc1C(=O)Nc1ccn([C@@H]2O[C@H](CO)[C@@H](O)C2(F)F)c(=O)n1 [Compound 22, Undecyl-3-((1-((2R,4R,5R)-3,3-difluoro-4-hydroxy-5-(hydroxymethyl)-tetrahydrofuran-2-yl)-2-oxo-1,2-dihydropyrimidin-4-yl)carbamoyl)isonicotinate] | 8 | – | 30 | 16 | – | – | – | – | –
CCCCCCCCCCCOC(=O)c1cc(C(=O)Nc2ccn([C@@H]3O[C@H](CO)[C@@H](O)C3(F)F)c(=O)n2)ccn1 [Compound 29, Undecyl-4-((1-((2R,4R,5R)-3,3-difluoro-4-hydroxy-5-(hydroxymethyl)-tetrahydrofuran-2-yl)-2-oxo-1,2-dihydropyrimidin-4-yl)carbamoyl)picolinate] | 3 | – | < 2 | 8 | – | – | – | – | –
CCCCCCCCCCCOC(=O)c1cc(C(=O)Nc2ccn([C@@H]3O[C@H](CO)[C@@H](O)C3(F)F)c(=O)n2)[nH]n1 [Compound 30, Undecyl-5-((1-((2R,4R,5R)-3,3-difluoro-4-hydroxy-5-(hydroxymethyl)-tetrahydrofuran-2-yl)-2-oxo-1,2-dihydropyrimidin-4-yl)carbamoyl)-1H-pyrazole-3-carboxylate] | 14 | – | 4 | 16 | – | – | – | – | –
CCCCCCCCCCCOC(=O)c1ccc(C(=O)Nc2ccn([C@@H]3O[C@H](CO)[C@@H](O)C3(F)F)c(=O)n2)nc1 [Compound 10, Undecyl-6-((1-((2R,4R,5R)-3,3-difluoro-4-hydroxy-5-(hydroxymethyl)-tetrahydrofuran-2-yl)-2-oxo-1,2-dihydropyrimidin-4-yl)carbamoyl)nicotinate] | 13 | – | 4 | 30 | – | – | – | – | –
CCCCCCCCCCCCOC(=O)c1cccc(C(=O)Nc2ccn([C@@H]3O[C@H](CO)[C@@H](O)C3(F)F)c(=O)n2)n1 [Compound 18, Dodecyl-6-((1-((2R,4R,5R)-3,3-difluoro-4-hydroxy-5-(hydroxymethyl)-tetrahydrofuran-2-yl)-2-oxo-1,2-dihydropyrimidin-4-yl)carbamoyl)picolinate] | 15 | – | 7 | 16 | – | – | – | – | –
CCCCCCCCCCCCOC(=O)c1cc(C(=O)Nc2ccn([C@@H]3O[C@H](CO)[C@@H](O)C3(F)F)c(=O)n2)ccn1 [Compound 27, Dodecyl-4-((1-((2R,4R,5R)-3,3-difluoro-4-hydroxy-5-(hydroxymethyl)-tetrahydrofuran-2-yl)-2-oxo-1,2-dihydropyrimidin-4-yl)carbamoyl)picolinate] | 4 | > 16 | < 2 | 4 | 2 | < 1 | < 1 | 1 | –
CCCCCCCCCCCCOC(=O)c1cc(C(=O)Nc2ccn([C@@H]3O[C@H](CO)[C@@H](O)C3(F)F)c(=O)n2)[nH]n1 [Compound 31, Dodecyl-5-((1-((2R,4R,5R)-3,3-difluoro-4-hydroxy-5-(hydroxymethyl)-tetrahydrofuran-2-yl)-2-oxo-1,2-dihydropyrimidin-4-yl)carbamoyl)-1H-pyrazole-3-carboxylate] | 21 | – | 7 | 30 | – | – | – | – | –
